In patent publication US8513182B2, “Natural polypeptides for oral health care” (priority 2007, dated 2013):
Like-named read-outs stand apart in the source and are kept apart here. Ends that are not written are not given here.

Columns and labels:
[1] = system: bacterial plaque; details: in vitro and in vivo; cited from earlier work
[2] = system: Streptococcus mutans; experiment: killing of Streptococcus mutans by synthetic lactoferrin peptide; format: cell-based
[3] = system: Streptococcus mutans; experiment: disk diffusion assay on confluent S. mutans culture; format: cell-based; details: for antibacterial activity (zone of inhibition) against S. mutans: FIG. 4, lactoferrin, statherin and fusion peptides on disk
Description: In all panels the circle is a filter paper disk impregnated with different agents (PBS=phosphate buffered saline which is a control); LF “R”=the 11 mer of lactoferrin with arginine (R) in amino acid position 29; LF “K” the 11 mer of lactoferrin with lysine (K) in amino acid position 29. The disk containing a standard concentration of one of the agents is placed over a confluent culture of Streptococcus mutans.
In all panels the circle is a disk impregnated with different agents. The disk is placed over a confluent culture of Streptococcus mutans. […] Panel top left: Lactoferrin (timer) where the lysine is present. […] Middle and top right panel are the two statherin peptides, a 6 mer and a 15 mer. […] Panel bottom left: lactoferrin 11 mer noted as LF fused to the Statherin 6 mer. […] Panel bottom right: Lactoferrin 11 mer noted as LF fused to Statherin 15 mer. […] The two panels on the bottom show the level of interference when the LF is added to the two Statherins. The activity of the LF when the smaller Statherin peptide is fused to it is greater as compared to when the larger peptide is fused to the LF.
The first was a disk diffusion screening assay we developed in our laboratory. In that assay we grew an overnight culture of S. mutans in a broth consisting of trypticase soy and 20% sucrose added. Cells were grown overnight and then streaked to confluence on Mitis Salivarius Bacitracin (MSB) agar. In addition we took a 25 cm sterile filter paper disk and added 200 ul of either whole saliva, the saliva containing the lysine or the arginine variant of lactoferrin, allowed this saliva to dry onto the filter paper for 1 hour and then placed the filter paper containing the added protein over the center of the confluent culture of S. mutans on the MSB agar. […] This assay was used to screen for potential antimicrobial activity.
The disk diffusion assay allows for specific proteins to be added to a filter paper disk whereby the protein can then diffuse into the agar to determine antimicrobial activity. The following peptides were added to the disk; R=arginine form of Lf (FIG. 1(a)). K=lysine form of Lf (FIG. 1(a). PBS=phosphate buffered saline which is used as the control solution and to which is added either the R form or K form of Lf. In FIG. 1 below we added R form, or the K form at a concentration of 1 ug/ml to 200 ul of PBS and then added that to the surface of a 25 cm filter paper strip and allowed the strip to dry for 1 hour. We then streaked a culture of S. mutans to confluence onto a plate of trypicase soy agar containing 20% sucrose and then placed the dried disk over the center of the plate. The cultures were allowed to grow in an incubator set at 37° C. and then evaluated either at 24 or 48 hours after inoculation. […] No zone was seen on disk R/PBS or R/Saliva, where the arginine variant was substituted for the lysine variant (FIG. 3). The R and K Form of LF peptide was added at a concentration of about 15 ug/ml.

[4] = system: bacteria adhering to SHA; details: SHA treated with drug, washed, placed in a culture of bacteria; cited from earlier work
[5] = system: oral bacteria; details: bacteria grown in a broth media, in-vitro; cited from earlier work
[6] = system: S. mutans; details: literature (Gibbons and Hay 1989; Shimotoyodeme et al 2006), cited from earlier work

## [H]/N=C(\N/C(=N/[H])NCCCCCCNC(=N)NC(=N)Nc1ccc(Cl)cc1)Nc1ccc(Cl)cc1 [chlorhexidine]
[1]
  bacterial plaque attachment to teeth: reduce bacterial plaque attachment to teeth

## LF “K”: the 11 mer of lactoferrin with lysine (K) in amino acid position 29 (FQWQRNMRKVR; Active form of synthetic peptide LF11 based on human lactoferrin peptide)
[2]
  killing of Streptococcus mutans: kills Streptococcus mutans
[3]; FIG. 3, peptide in PBS dried on filter paper disk, 37° C., 24 or 48 hours, listed as K
  zone of inhibition of S. mutans growth around disk: zone of inhibition
[3]; FIG. 3, peptide in PBS dried on filter paper disk, 37° C., 24 or 48 hours, listed as lysine variant of Lactoferrin
  zone of inhibition of S. mutans growth around disk: clear zone
[3]
  antibacterial activity (zone of inhibition) against S. mutans: inhibits the growth of S. mutans
[3]; peptide suspended in normal saliva, dried on filter paper disk
  zone of inhibition of S. mutans growth around disk: zone of inhibition

## Penicillin
[4]
  adherence of bacteria to treated SHA: no effect
[5]
  concentration effective against oral bacteria: 1 µg/mL

## ST6: statherin peptide, a 6 mer (DSSEEK; ends and bridges not checked; UniProt P02808 20-25, looked up, fragment)
[3]
  antibacterial activity (zone of inhibition) against S. mutans: do not have any antimicrobial activity
[3]; listed as Statherin 6 mer
  antibacterial activity (zone of inhibition) against S. mutans: no zone of inhibition
[6]
  S. mutans attachment / binding to the tooth surface: also has this capacity

## STAT-LF 6: fusion protein: lactoferrin 11 mer (LF) fused to the Statherin 6 mer (DDDEEKFQWQRNMRKVR; Synthetic fusion peptide STAT-LF6)
[3]; listed as LF and the Statherin 6 mer
  antibacterial activity (zone of inhibition) against S. mutans: most active fusion peptide
[3]; listed as LF fused to the Statherin 6
  antibacterial activity (zone of inhibition) against S. mutans: retains the activity of the Lactoferrin 11 mer
[3]; listed as LF fused to the Statherin 6 mer
  antibacterial activity (zone of inhibition) against S. mutans: retains the activity of the Lactoferrin 11 mer

## Statherin: small salivary tyrosine-rich phosphoprotein containing 43 amino acids (DSSEEKFLRRIGRFGYGYGPYQPVPEQPLYPQPYQPQYQQYTF; also: phosphoprotein, sites not given here; UniProt P02808 20-62, looked up)
[6]
  S. mutans attachment / binding to the tooth surface: reduce S. mutans binding to the tooth surface
[6]; listed as statherin
  S. mutans attachment / binding to the tooth surface: inhibit S. mutans attachment
